Data: ChEMBL document CHEMBL1129610, “3- and 4-pyridylalkyl adamantanecarboxylates: inhibitors of human cytochrome P450(17 alpha) (17 alpha-hydroxylase/C17,20-lyase). Potential nonsteroidal agents for the treatment of prostatic cancer” (J Med Chem, 1996)
Values belong to the molecule of their own block, whether it stands above or below them.

Key:
[1] = target: T1, Steroid 17-alpha-hydroxylase/17,20 lyase (Homo sapiens, UniProt P05093); type: microsomes, Testis, Microsomes
T1 sequence (P05093 whole entry): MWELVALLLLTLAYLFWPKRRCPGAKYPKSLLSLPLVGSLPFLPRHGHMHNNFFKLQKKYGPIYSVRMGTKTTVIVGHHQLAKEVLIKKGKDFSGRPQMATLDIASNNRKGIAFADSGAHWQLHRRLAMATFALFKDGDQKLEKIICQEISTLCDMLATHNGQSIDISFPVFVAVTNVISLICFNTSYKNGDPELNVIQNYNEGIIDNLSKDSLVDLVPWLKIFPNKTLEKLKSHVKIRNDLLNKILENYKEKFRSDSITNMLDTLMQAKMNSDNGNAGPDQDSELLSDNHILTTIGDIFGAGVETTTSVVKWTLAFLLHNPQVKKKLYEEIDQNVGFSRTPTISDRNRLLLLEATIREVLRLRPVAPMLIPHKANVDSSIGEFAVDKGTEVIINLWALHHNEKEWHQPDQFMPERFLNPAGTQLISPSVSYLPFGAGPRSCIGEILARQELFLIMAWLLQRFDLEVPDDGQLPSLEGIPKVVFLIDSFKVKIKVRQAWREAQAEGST

[2] = target: T1, Steroid 17-alpha-hydroxylase/17,20 lyase
[3] = organism: Rattus norvegicus; type: functional
[4] = in vitro; conditions: rat, in vivo
[5] = organism: Mus musculus; type: functional
[6] = organism: Mus musculus; type: functional; remark: listed apart in the source
[7] = in vitro; conditions: rat, in vivo; remark: listed apart in the source
[8] = in vitro; conditions: rat, in vivo; remark: listed apart in the source
[9] = organism: Rattus norvegicus; type: functional, Blood
[10] = organism: Homo sapiens; type: functional, Blood
[11] = organism: Mus musculus; type: functional, Blood

Structure (SMILES): C[C@@H](NC(=O)C12CC3CC(CC(C3)C1)C2)c1ccncc1
IC50 [1]: 430 nM
IC50 [2]: 1900 nM

Structure (SMILES): C[C@H](NC(=O)C12CC3CC(CC(C3)C1)C2)c1ccncc1
IC50 [1]: 210 nM
IC50 [2]: 820 nM

Structure (SMILES): O=C(OCc1ccncc1)C12CC3CC(CC(C3)C1)C2
half-life at 1 min [8]: < 1 min
Substrate metabolized at 1hr [9]: 100%
Substrate metabolized at 1hr [10]: 45%
Substrate metabolized at 1hr [11]: 100%

Second part, led by results:

half-life at 1 h [4]: > 60 min
Structure (SMILES): CC(C)(OC(=O)C12CC3CC(CC(C3)C1)C2)c1ccncc1
Substrate metabolized at 1hr [3]: 0%
Substrate metabolized at 1hr [5]: 2%
Substrate metabolized at 1hr [6]: 0%

half-life [7]: 0.5 min
Structure (SMILES): C[C@H](OC(=O)C12CC3CC(CC(C3)C1)C2)c1ccncc1

half-life [7]: 0.5 min
Structure (SMILES): C[C@@H](OC(=O)C12CC3CC(CC(C3)C1)C2)c1ccncc1
